Laboratory results: ChEMBL document CHEMBL1201862, “PubChem BioAssay data set” (2004)
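These data come from cells grown in 96-well plates and exposed to compound for 48 hours at five concentrations. Abbreviation: GI50, concentration required for 50% inhibition of growth.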 Active and inactive are the calls of the source. Rule as the data show it: active = GI50 up to about 1.1 µM and inactive = higher.

Columns and labels:
Assay in all cases: DTP human tumour cell line panel, 48 h
[1] = test system: M14
[2] = test system: MDA-MB-231
[3] = test system: OVCAR-5
[4] = test system: NCI-H460
[5] = test system: TK-10
[6] = test system: CCRF-CEM
[7] = test system: K562
[8] = test system: HCC 2998
[9] = test system: MCF7
[10] = test system: SF-268
[11] = test system: UACC-257
[12] = test system: OVCAR-3
[13] = test system: SF-539
[14] = test system: HT-29
[15] = test system: NCI-H23
[16] = test system: NCI-H522
[17] = test system: HCT-116
[18] = test system: HOP-92
[19] = test system: OVCAR-4
[20] = test system: CAKI-1
[21] = test system: UO-31
[22] = test system: SK-MEL-28
[23] = test system: COLO 205
[24] = test system: SN12C
[25] = test system: EKVX
[26] = test system: SK-MEL-2
[27] = test system: 786-0
[28] = test system: MDA-N
[29] = test system: IGROV-1
[30] = test system: OVCAR-8
[31] = test system: HCT-15
[32] = test system: Hs-578T
[33] = test system: PC-3
[34] = test system: U-251
[35] = test system: RXF 393
[36] = test system: DU-145
[37] = test system: SK-MEL-5
[38] = test system: SW-620
[39] = test system: BT-549
[40] = test system: MDA-MB-435
[41] = test system: NCI-H226
[42] = test system: A549
[43] = test system: UACC-62
[44] = test system: SNB-75
[45] = test system: SR
[46] = test system: A498
[47] = test system: NCI/ADR-RES
[48] = test system: RPMI-8226
[49] = test system: KM12
[50] = test system: T47D
[51] = test system: ACHN
[52] = test system: HOP-62
[53] = test system: HL-60
[54] = test system: LOX IMVI
[55] = test system: Malme-3M
[56] = test system: SNB-19
[57] = test system: MOLT-4
[58] = test system: SK-OV-3
[59] = test system: SF-295

Measured: GI50

COc1ccc(-c2cc(-c3ccc(Nc4ccnc5cc(C(F)(F)F)ccc45)cc3)[nH]c(=O)c2C#N)c2ccccc12
inactive: [1] > 42.7 µM | [2] 17.7 µM | [3] > 61.2 µM | [4] > 100 µM | [5] 26.9 µM | [6] > 20.9 µM | [7] > 100 µM | [8] > 100 µM | [9] > 29.5 µM | [10] 38.1 µM | [11] > 100 µM | [12] 38.7 µM | [13] 16.6 µM | [14] > 25.7 µM | [15] 39.5 µM | [16] > 100 µM | [17] 17.5 µM | [18] > 100 µM | [19] > 46 µM | [20] > 100 µM | [21] > 35.6 µM | [22] > 59.7 µM | [23] > 37.7 µM | [24] > 100 µM | [25] > 100 µM | [26] > 56 µM | [27] 21 µM | [28] > 38.4 µM | [29] > 100 µM | [30] > 46.3 µM | [32] 35.7 µM | [33] > 100 µM | [34] 10.2 µM | [35] 15.2 µM | [36] > 43.8 µM | [37] > 100 µM | [38] > 100 µM | [39] > 58.5 µM | [40] > 33.7 µM | [41] > 55.3 µM | [42] > 100 µM | [43] 88.5 µM | [44] 11.2 µM | [45] 12.6 µM | [46] > 43 µM | [47] > 100 µM | [48] > 100 µM | [49] > 30.4 µM | [50] > 34 µM | [51] > 32.5 µM | [52] 11.2 µM | [53] > 100 µM | [54] 24.2 µM | [55] > 41.2 µM | [56] 18.8 µM | [57] > 100 µM | [58] 10.2 µM | [59] 25.8 µM
> 100 µM: [31]
